In ChEMBL document CHEMBL6096733, “Structure-Based Virtual Screening Identifies 2-Arylthiazole-4-Carboxylic Acids as a Novel Class of Nanomolar Affinity Ligands for the CaMKIIα Hub Domain” (J Med Chem, 2025):

Experiments:
[1] = target: T1, Calcium/calmodulin-dependent protein kinase type II subunit alpha (Rattus norvegicus, UniProt P11275); assay: Inhibition of […] binding to CaMKIIalpha in rat brain cortical membrane assessed as inhibition constant incubated for 1 hrs by TopCount NXT microplate scintillation counter analysis; assay type: cell membranes, Cortex; conditions: read-out: Ki
T1 sequence (P11275 whole entry): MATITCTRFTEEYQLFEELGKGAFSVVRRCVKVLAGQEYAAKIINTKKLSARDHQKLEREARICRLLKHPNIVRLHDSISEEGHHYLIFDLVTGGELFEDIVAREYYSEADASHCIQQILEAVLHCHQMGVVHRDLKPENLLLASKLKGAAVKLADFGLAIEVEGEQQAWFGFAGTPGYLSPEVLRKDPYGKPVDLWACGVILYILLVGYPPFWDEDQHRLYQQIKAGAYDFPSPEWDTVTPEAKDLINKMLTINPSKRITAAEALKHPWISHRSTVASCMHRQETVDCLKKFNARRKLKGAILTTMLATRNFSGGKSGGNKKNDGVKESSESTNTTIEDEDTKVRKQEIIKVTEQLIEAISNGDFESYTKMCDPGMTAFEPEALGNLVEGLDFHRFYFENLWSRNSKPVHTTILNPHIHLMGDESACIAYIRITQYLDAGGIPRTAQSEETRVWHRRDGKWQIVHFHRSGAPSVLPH

[2] = target: T1, Calcium/calmodulin-dependent protein kinase type II subunit alpha; assay: Inhibition of [3H]NCS-382 binding to CaMKIIalpha in rat brain cortical membrane assessed as inhibition constant incubated for 1 hrs by TopCount NXT microplate scintillation counter analysis; assay type: cell membranes, Cortex; conditions: read-out: Ki
physchem = conditions: potassium phosphate buffer, pH 7.4
Description: Stability of compound in potassium phosphate buffer at pH 7.4 assessed as half-life

[3] = target: T2, Calcium/calmodulin-dependent protein kinase type II subunit alpha (Homo sapiens, UniProt Q9UQM7); assay: Induction of thermal stabilization of recombinant wildtype human CAMKIIalpha hub domain (345 to 475 residues) extracted from Escherichia coli BL21 (DE3) cells by differential scanning fluorimetric analysis; conditions: dose 0.625-320 µM
T2 sequence (Q9UQM7 whole entry, the tested form may be a part): as the sequence (P11275 whole entry) above, with N324S counted along it

[4] = target: T2, Calcium/calmodulin-dependent protein kinase type II subunit alpha; assay: Induction of thermal stabilization of recombinant wildtype human CAMKIIalpha hub domain (345 to 475 residues) extracted from Escherichia coli BL21 (DE3) cells assessed as change in melting temperature at 0.625 to 320 microM by differential scanning fluorimetric analysis; conditions: dose 0.625-320 µM
BCRP [5] = assay: Apparent permeability across basolateral to apical side in human Caco-2 cells transfected with human BCRP at 3 uM measured after 60 to 90 mins by LC-MS/MS analysis; assay type: ADME, cell-based; conditions: time 60-90 min
[6] = Metabolic stability in pooled human plasma assessed as parent compound remaining at 20 uM measured immediately by LC-MS analysis; assay type: ADME, cell-free; conditions: read-out: Stability
[7] = Ratio of unbound brain to plasma drug concentration in mouse at 10 mg/kg, ip measured after 0.5 hrs by LC-MS/MS analysis; assay type: ADME, organism-based; conditions: brain and plasma, read-out: K(p,uu,brain)
[8] = Metabolic stability in pooled human plasma assessed as parent compound remaining at 20 uM measured after 120 mins by LC-MS analysis; assay type: ADME, cell-free; conditions: read-out: Stability
[9] = Drug concentration in mouse plasma at 10 mg/kg, ip measured after 0.5 hrs by LC-MS/MS analysis; assay type: ADME, organism-based
[10] = Metabolic stability in pooled human plasma assessed as parent compound remaining at 20 uM measured after 30 mins by LC-MS analysis; assay type: ADME, cell-free; conditions: read-out: Stability
[11] = Ratio of drug concentration in mouse brain to plasma at 10 mg/kg, ip measured after 0.5 hrs by LC-MS/MS analysis; assay type: ADME, organism-based; conditions: brain and plasma, read-out: BPR
BCRP [12] = assay: Efflux ratio of apparent permeability across basolateral to apical side over apical to basolateral side in human Caco-2 cells transfected with human BCRP at 3 uM preincubated with novobiocin for 15 to 30 mins followed by compound addition and measured after 60 to 90 mins by LC-MS/MS analysis; assay type: ADME, cell-based; conditions: time 60-90 min
BCRP [13] = assay: Efflux ratio of apparent permeability across basolateral to apical side over apical to basolateral side in human Caco-2 cells transfected with human BCRP at 3 uM measured after 60 to 90 mins by LC-MS/MS analysis; assay type: ADME, cell-based; conditions: time 60-90 min
[14] = Metabolic stability in pooled CD-1 mouse liver microsomes assessed as parent compound remaining at 10 uM measured immediately in presence of NADPH regeneration system by LC-MS analysis; assay type: ADME, Microsome; conditions: read-out: Stability
[15] = Metabolic stability in pooled human plasma assessed as parent compound remaining at 20 uM measured after 60 mins by LC-MS analysis; assay type: ADME, cell-free; conditions: read-out: Stability
[16] = Metabolic stability in pooled CD-1 mouse liver microsomes assessed as parent compound remaining at 10 uM measured after 15 mins in presence of NADPH regeneration system by LC-MS analysis; assay type: ADME, Microsome; conditions: read-out: Stability
[17] = target: T2, Calcium/calmodulin-dependent protein kinase type II subunit alpha; assay: Binding affinity to recombinant wildtype human CAMKIIalpha hub domain (345 to 475 residues) extracted from Escherichia coli BL21 (DE3) cells assessed as dissociation constant by SPR analysis
[18] = Metabolic stability in pooled CD-1 mouse liver microsomes assessed as parent compound remaining at 10 uM measured after 30 mins in presence of NADPH regeneration system by LC-MS analysis; assay type: ADME, Microsome; conditions: read-out: Stability
BCRP [19] = assay: Apparent permeability across apical to basolateral side in human Caco-2 cells transfected with human BCRP at 3 uM preincubated with novobiocin for 15 to 30 mins followed by compound addition and measured after 60 to 90 mins by LC-MS/MS analysis; assay type: ADME, cell-based; conditions: time 60-90 min
BCRP [20] = assay: Apparent permeability across apical to basolateral side in human Caco-2 cells transfected with human BCRP at 3 uM measured after 60 to 90 mins by LC-MS/MS analysis; assay type: ADME, cell-based; conditions: time 60-90 min
[21] = Drug concentration in mouse brain at 10 mg/kg, ip measured after 0.5 hrs by LC-MS/MS analysis; assay type: ADME, organism-based; conditions: read-out: Ct
BCRP [22] = assay: Apparent permeability across basolateral to apical side in human Caco-2 cells transfected with human BCRP at 3 uM preincubated with novobiocin for 15 to 30 mins followed by compound addition and measured after 60 to 90 mins by LC-MS/MS analysis; assay type: ADME, cell-based; conditions: time 60-90 min
[23] = Chemical stability of compound in phosphate buffer solution at pH 7.4; assay type: physicochemical
[24] = Metabolic stability in pooled CD-1 mouse liver microsomes assessed as parent compound remaining at 10 uM measured after 60 mins in presence of NADPH regeneration system by LC-MS analysis; assay type: ADME, Microsome; conditions: read-out: Stability

A Ki [1] of 12.6 µM was found for `O=C(O)c1csc(-c2ccc(O)cc2)n1` in this work.
A Ki [1] of 9.9 µM was found for `O=C(O)Cc1csc(-c2cccc3ccccc23)n1` in this work.
A Ki [1] of 2.7 µM was found for `O=C(O)c1csc(-c2cccc(O)c2)n1` in this work.
A Ki [1] of 0.16 µM was found for `O=C(O)c1csc(-c2c(I)cccc2I)n1` in this work.
A Ki [1] of 9.9 µM was found for `COc1cccc(-c2nc(C(=O)O)cs2)c1` in this work.
A Ki [2] of 10.3 µM was found for `O=C(O)c1csc(-c2ccc(C(F)(F)F)cc2)n1` in this work.
A Ki [1] of 0.9 µM was found for `Cc1ccccc1-c1nc(C(=O)O)cs1` in this work.
A Ki [1] greater than 100 µM was found for `OC1(c2csc(-c3c(Cl)cccc3Cl)n2)COC1` in this work.
A half-life (physchem) of 2 min was found for `CCN(CC)CCOC(=O)c1ccc(N)cc1` [PROCAINE] in this work.
A Ki [1] of 60.2 µM was found for `O=C(O)c1csc(-c2ccncc2)n1` in this work.
In the case of `O=C(O)c1csc(-c2c(Br)cccc2Br)n1`, the Activity [3] is reported as “Dose-dependent-effect”, the Ki [1] is reported as 0.05 µM and the ΔTm [4] is reported as 22 °C.
A Ki [1] of 44.8 µM was found for `Clc1cccc(Cl)c1-c1nc(Cc2nnn[nH]2)cs1` in this work.
A Ki [1] of 0.19 µM was found for `Clc1cccc(Cl)c1-c1nc(-c2nnn[nH]2)cs1` in this work.
A Ki [1] of 3.1 µM was found for `O=C(O)Cc1csc(-c2ccccc2)n1` in this work.
A Ki [1] greater than 10 µM was found for `O=C(O)Cc1csc(Cc2ccccc2)n1` in this work.
A Ki [1] of 1.4 µM was found for `O=C(O)c1csc(Cc2ccccc2)n1` in this work.
A Ki [1] of 0.71 µM was found for `O=C(O)c1csc(-c2c(F)cccc2F)n1` in this work.
A Papp B→A at 3 µM (BCRP [5]) of 11.3 ×10⁻⁶ cm/s, a remaining at 0 min, 20 µM [6] of 100% and a Kp uu at 0.5 h [7] of 0.1 were found for `O=C(O)c1csc(-c2c(Cl)cccc2Cl)n1` in this work. The Activity [3] was “Dose-dependent-effect”, the remaining at 2 h, 20 µM [8] was 94% and the concentration at 0.5 h [9] was 18600 ng/mL. The remaining at 0.5 h, 20 µM [10] was 101%, the Ki [1] was 0.062 µM and the Kp at 0.5 h [11] was 0.02. It also gave an efflux ratio at 3 µM (BCRP [12]) of 1.05, an efflux ratio at 3 µM (BCRP [13]) of 1.06 and a remaining at 0 min, 10 µM [14] of 100%. For the same compound, the remaining at 1 h, 20 µM [15] was 98%, the remaining at 0.25 h, 10 µM [16] was 101% and the Kd [17] was 0.759 µM. The remaining at 0.5 h, 10 µM [18] was 104%, the Papp A→B at 3 µM (BCRP [19]) was 10.9 ×10⁻⁶ cm/s and the Papp A→B at 3 µM (BCRP [20]) was 10.7 ×10⁻⁶ cm/s. The concentration at 0.5 h [21] was 350 ng/g, the Papp B→A at 3 µM (BCRP [22]) was 11.4 ×10⁻⁶ cm/s and the Stability [23] was “Stable”. For the same compound, the remaining at 1 h, 10 µM [24] was 100% and the ΔTm [4] was 21.4 °C.
A Ki [1] greater than 100 µM was found for `OC1(c2nc(-c3c(Cl)cccc3Cl)cs2)COC1` in this work.
A Ki [1] of 2 µM was found for `O=C(O)Cc1csc(-c2ccccc2Cl)n1` in this work.
A Ki [1] of 2.6 µM was found for `O=C(O)c1csc(CCc2ccccc2)n1` in this work.
